Tests used:
human recombinant PLK4 = human recombinant PLK4 (Homo sapiens (Human), UniProt O00444); experiment: PLK4 Biochemical Assay (ADP-Glo); conditions: 0.5 nM PLK4, 8.0 µM ATP, 4.7 µM MBP, 6 hours at RT
Outline: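 Luminescent ADP-Glo detection quantified ADP production, with ATP depletion for 40 min and detection for 30 min at room temperature. Compound and PLK4 (1.0 nM stock addition) were preincubated 15 min in HEPES pH 7.5 buffer containing MgCl2, EGTA, DTT, Brij-35 and BSA. IC50 values were obtained by four-parameter nonlinear regression.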

[1] = target: human recombinant Aurora A (Homo sapiens (Human), UniProt O14965); experiment: Aurora A Kinase Biochemical Assay (ADP-Glo); conditions: ratio of Aurora A IC50 to PLK4 IC50 (selectivity)
human recombinant Aurora A, sequence (O14965 whole entry): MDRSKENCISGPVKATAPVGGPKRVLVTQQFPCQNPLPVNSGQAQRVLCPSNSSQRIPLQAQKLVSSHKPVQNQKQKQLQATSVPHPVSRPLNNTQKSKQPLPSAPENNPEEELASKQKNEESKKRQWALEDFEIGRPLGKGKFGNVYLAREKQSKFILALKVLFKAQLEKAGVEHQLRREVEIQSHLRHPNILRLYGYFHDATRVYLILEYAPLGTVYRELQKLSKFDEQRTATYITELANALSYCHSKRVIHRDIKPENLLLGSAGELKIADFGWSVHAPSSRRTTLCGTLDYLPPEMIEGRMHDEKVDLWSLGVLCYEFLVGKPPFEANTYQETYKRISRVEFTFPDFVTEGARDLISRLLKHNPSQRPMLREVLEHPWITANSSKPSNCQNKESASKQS

[2] = target: human recombinant Aurora B (Homo sapiens (Human), UniProt Q96GD4); experiment: Aurora B Kinase Biochemical Assay (ADP-Glo); conditions: ratio of Aurora B IC50 to PLK4 IC50 (selectivity)
human recombinant Aurora B, sequence (Q96GD4 whole entry): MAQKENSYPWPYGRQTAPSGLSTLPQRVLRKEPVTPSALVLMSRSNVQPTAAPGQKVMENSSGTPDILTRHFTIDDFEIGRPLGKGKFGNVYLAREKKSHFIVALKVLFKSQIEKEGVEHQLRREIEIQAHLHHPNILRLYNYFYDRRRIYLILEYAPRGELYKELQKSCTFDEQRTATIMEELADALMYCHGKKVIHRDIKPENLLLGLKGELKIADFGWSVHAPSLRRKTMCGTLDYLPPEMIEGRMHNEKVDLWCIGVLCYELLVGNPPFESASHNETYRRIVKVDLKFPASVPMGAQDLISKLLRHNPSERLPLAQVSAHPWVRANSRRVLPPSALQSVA
Outline: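 IC50 derived by four-parameter nonlinear fit of ADP-Glo luminescence (ADP produced). Compound was preincubated 15 min at RT with 20 nM recombinant human Aurora B, in 50 mM HEPES pH 7.5, 10 mM MgCl2, 1 mM EGTA, 1 mM DTT, 0.01% Brij-35/BSA.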

CHP-134 cells = experiment: CHP134 CellTiter-Glo (CTG) Assay; format: cell-based; conditions: Homo sapiens, CHP-134, 120 h, 5 days, viable cells by CellTiter-Glo
Outline: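 Nine-point 1:3 dilution series, diluted into growth media, added in quadruplicate to CHP-134 cells plated 16 h earlier at 200 cells/well.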

human recombinant PLK4, sequence (O00444 whole entry): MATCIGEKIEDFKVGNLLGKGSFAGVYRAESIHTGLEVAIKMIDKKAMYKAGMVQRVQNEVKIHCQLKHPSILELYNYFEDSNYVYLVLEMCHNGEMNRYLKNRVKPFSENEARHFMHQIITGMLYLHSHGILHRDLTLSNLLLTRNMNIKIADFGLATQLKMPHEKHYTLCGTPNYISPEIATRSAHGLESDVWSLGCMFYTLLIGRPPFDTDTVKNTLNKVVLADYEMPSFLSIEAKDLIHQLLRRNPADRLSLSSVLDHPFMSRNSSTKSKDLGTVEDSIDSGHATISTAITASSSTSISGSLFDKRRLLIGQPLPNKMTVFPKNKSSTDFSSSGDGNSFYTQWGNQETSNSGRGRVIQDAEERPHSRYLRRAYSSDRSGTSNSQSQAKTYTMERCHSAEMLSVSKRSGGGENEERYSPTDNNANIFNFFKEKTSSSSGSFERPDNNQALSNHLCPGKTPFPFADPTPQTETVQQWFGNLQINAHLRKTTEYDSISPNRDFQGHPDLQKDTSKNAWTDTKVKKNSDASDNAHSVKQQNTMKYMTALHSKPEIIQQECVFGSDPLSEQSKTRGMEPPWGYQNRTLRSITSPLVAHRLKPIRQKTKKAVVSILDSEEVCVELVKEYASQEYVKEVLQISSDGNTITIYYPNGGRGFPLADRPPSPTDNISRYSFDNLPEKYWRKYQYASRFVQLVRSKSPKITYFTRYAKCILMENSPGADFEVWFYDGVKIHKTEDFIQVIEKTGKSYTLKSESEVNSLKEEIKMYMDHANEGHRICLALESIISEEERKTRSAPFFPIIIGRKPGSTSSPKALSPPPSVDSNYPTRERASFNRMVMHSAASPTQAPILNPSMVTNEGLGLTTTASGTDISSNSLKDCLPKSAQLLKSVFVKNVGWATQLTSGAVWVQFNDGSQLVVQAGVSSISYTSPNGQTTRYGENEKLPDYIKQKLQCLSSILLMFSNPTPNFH

SMILES | IC50 (human recombinant PLK4) [nM] | [Aurora A IC50 (nM)]/[PLK4 IC50 (nM)] [1] | [Aurora B IC50 (nM)]/[PLK4 IC50 (nM)] [2] | IC50 (CHP-134 cells) [nM]
COc1ccc2c(c1)[C@]1(C[C@H]1c1ccc3c(Nc4nc(N5CC(O)C5)ncc4Cl)n[nH]c3c1)C(=O)N2 [Example 120, (1R,2S)-2-(3-{[5-chloro-2-(3-hydroxyazetidin-1-yl)pyrimidin-4-yl]amino}-1H-indazol-6-yl)-5′-methoxyspiro[cyclopropane-1,3′-indol]-2′(1′H)-one] | 3.81 | 444.0366 | 684.6657 | 10000
COc1ccc2c(c1)[C@]1(C[C@H]1c1ccc3c(Nc4nc(C)ncc4OC(F)F)n[nH]c3c1)C(=O)N2 [Example 121, (1R,2S)-2-(3-{[5-(difluoromethoxy)-2-methylpyrimidin-4-yl]amino}-1H-indazol-6-yl)-5′-methoxyspiro[cyclopropane-1,3′-indol]-2′(1′H)-one] | 1.79 | 875.6967 | 230.8807 | 5320
COc1ccc2c(c1)[C@]1(C[C@H]1c1ccc3c(Nc4nc(C)ncc4OC)n[nH]c3c1F)C(=O)N2 [Example 123, (1R,2R)-2-{7-fluoro-3-[(5-methoxy-2-methylpyrimidin-4-yl)amino]-1H-indazol-6-yl}-5′-methoxyspiro[cyclopropane-1,3′-indol]-2′(1′H)-one] | 4.8 | 667.5698 | 84.1 | 2110
COc1ccc2c(c1)[C@]1(C[C@H]1c1ccc3c(Nc4nc(C(C)C)ncc4OC)n[nH]c3c1)C(=O)N2 [Example 125, (1R,2S)-5′-methoxy-2-(3-{[5-methoxy-2-(propan-2-yl)pyrimidin-4-yl]amino}-1H-indazol-6-yl)spiro[cyclopropane-1,3′-indol]-2′(1′H)-one] | 0.833 | 1323.9707 | 495.7388 | 160
COc1cnc(C)nc1Nc1n[nH]c2cc([C@@H]3C[C@@]34C(=O)Nc3ccc(C)cc34)ccc12 [Example 126, (1R,2S)-2-{3-[(5-methoxy-2-methylpyrimidin-4-yl)amino]-1H-indazol-6-yl}-5′-methylspiro[cyclopropane-1,3′-indol]-2′(1′H)-one] | 9.01 | 66.2192 | 92.0568 | 459
COc1ccc2c(c1)[C@]1(C[C@H]1c1ccc3c(Nc4nc(C(C)C)ncc4OC(F)F)n[nH]c3c1)C(=O)N2 [Example 128, (1R,2S)-2-(3-{[5-(difluoromethoxy)-2-(propan-2-yl)pyrimidin-4-yl]amino}-1H-indazol-6-yl)-5′-methoxyspiro[cyclopropane-1,3′-indol]-2′(1′H)-one] | 2.89 | 2750.2597 | 1337.0280 | 1490
COc1ccc2c(c1)[C@]1(C[C@H]1c1ccc3c(Nc4ncnc(N5CC6(COC6)C5)c4Cl)n[nH]c3c1)C(=O)N2 [Example 132, (1R,2S)-2-(3-{[5-chloro-6-(2-oxa-6-azaspiro[3.3]heptan-6-yl)pyrimidin-4-yl]amino}-1H-indazol-6-yl)-5′-methoxyspiro[cyclopropane-1,3′-indol]-2′(1′H)-one] | 2.15 | 5290.8329 | 249.5114 | 618
COc1cnc(C)nc1Nc1n[nH]c2cc([C@@H]3C[C@@]34C(=O)Nc3ccc(F)cc34)ccc12 [Example 133, (1R,2S)-5′-fluoro-2-{3-[(5-methoxy-2-methylpyrimidin-4-yl)amino]-1H-indazol-6-yl}spiro[cyclopropane-1,3′-indol]-2′(1′H)-one] | 8.32 | 43.3910 | 45.1453 | 193
CCOc1cnc(C)nc1Nc1n[nH]c2cc([C@@H]3C[C@@]34C(=O)Nc3ccc(OC)cc34)ccc12 [Example 134, (1R,2S)-2-{3-[(5-ethoxy-2-methylpyrimidin-4-yl)amino]-1-indazol-6-yl}-5′-methoxyspiro[cyclopropane-1,3′-indol]-2′(1′H)-one] | 1.79 | 8849.1620 | 969.2737 | 782
COc1ccc2c(c1)[C@]1(C[C@H]1c1ccc3c(Nc4nc(C)ncc4C4CC4)n[nH]c3c1)C(=O)N2 [Example 140, (1R,2S)-2-{3-[(5-cyclopropyl-2-methylpyrimidin-4-yl)amino]-1H-indazol-6-yl}-5′-methoxyspiro[cyclopropane-1,3′-indol]-2′(1′H)-one] | 16.6 | 814 | 537 | 7760
COc1ccc2c(c1)[C@]1(C[C@H]1c1cc3[nH]nc(Nc4nc(C)ncc4OC)c3cc1F)C(=O)N2 [Example 144, (1R,2R)-2-{5-fluoro-3-[(5-methoxy-2-methylpyrimidin-4-yl)amino]-1H-indazol-6-yl}-5′-methoxyspiro[cyclopropane-1,3′-indol]-2′(1′H)-one] | 1.41 | 852.7955 | 61.4367 | 750
COc1ccc2c(c1)[C@]1(C[C@H]1c1ccc3c(Nc4cc(C)nnc4OC)n[nH]c3c1)C(=O)N2 [Example 145, (1R,2S)-5′-methoxy-2-{3-[(3-methoxy-6-methylpyridazin-4-yl)amino]-1H-indazol-6-yl}spiro[cyclopropane-1,3′-indol]-2′(1′H)-one] | 5.82 | 1001.5467 | 280.8043 | 2920
COc1ccc2c(c1)[C@]1(C[C@H]1c1ccc3c(Nc4nc(C)ncc4OCC4CC4)n[nH]c3c1)C(=O)N2 [Example 146, (1R,2S)-2-(3-{[5-(cyclopropylmethoxy)-2-methylpyrimidin-4-yl]amino}-1H-indazol-6-yl)-5′-methoxyspiro[cyclopropane-1,3′-indol]-2′(1′H)-one] | 1.49 | 3512.4078 | 745.8082 | 655

Second part, led by results:

IC50 (human recombinant PLK4) [nM] | [Aurora A IC50 (nM)]/[PLK4 IC50 (nM)] [1] | [Aurora B IC50 (nM)]/[PLK4 IC50 (nM)] [2] | SMILES | IC50 (CHP-134 cells) [nM]
4.22 | 2292.2093 | 483.0689 | COc1ccc2c(c1)[C@]1(C[C@H]1c1ccc3c(Nc4nc(C)ncc4OCC(F)F)n[nH]c3c1)C(=O)N2 [Example 147, (1R,2S)-2-(3-{[5-(2,2-difluoroethoxy)-2-methylpyrimidin-4-yl]amino}-1H-indazol-6-yl)-5′-methoxyspiro[cyclopropane-1,3′-indol]-2′(1′H)-one] | 1300
6.87 | 397.3799 | 338.8646 | COc1ccc2c(c1)[C@]1(C[C@H]1c1ccc3c(Nc4cc(C)ccc4OC)n[nH]c3c1)C(=O)N2 [Example 148, (1R,2S)-5′-methoxy-2-[3-(2-methoxy-5-methylanilino)-1H-indazol-6-yl]spiro[cyclopropane-1,3′-indol]-2′(1′H)-one] | 3570
3.15 | 3193.7837 | 879.4799 | COc1ccc2c(c1)[C@]1(C[C@H]1c1ccc3c(Nc4nc(C)ncc4OCC(F)(F)F)n[nH]c3c1)C(=O)N2 [Example 149, (1R,2S)-5′-methoxy-2-(3-{[2-methyl-5-(2,2,2-trifluoroethoxy)pyrimidin-4-yl]amino}-1H-indazol-6-yl)spiro[cyclopropane-1,3′-indol]-2′(1′H)-one] | 844
8.13 | 720.7185 | 366.7569 | COc1ccc2c(c1)[C@]1(C[C@H]1c1ccc3c(Nc4ccc(C)nc4OC)n[nH]c3c1)C(=O)N2 [Example 150, (1R,2S)-5′-methoxy-2-{3-[(2-methoxy-6-methylpyridin-3-yl)amino]-1H-indazol-6-yl}spiro[cyclopropane-1,3′-indol]-2′(1′H)-one] | 3160
1.91 | 1254.4596 | 123.6097 | COc1ccc2c(c1)[C@]1(C[C@H]1c1ccc3c(Nc4nc(C)nc5c4OCC5)n[nH]c3c1)C(=O)N2 [Example 153, (1R,2S)-5′-methoxy-2-{3-[(2-methyl-6,7-dihydrofuro[3,2-d]pyrimidin-4-yl)amino]-1H-indazol-6-yl}spiro[cyclopropane-1,3′-indol]-2′(1′H)-one] | 876
0.976 | 1373.9754 | 655.2254 | COc1ccc2c(c1)[C@]1(C[C@H]1c1ccc3c(Nc4nc(C5CCOCC5)ncc4OC)n[nH]c3c1)C(=O)N2 [Example 154, (1R,2S)-5′-methoxy-2-(3-{[5-methoxy-2-(oxan-4-yl)pyrimidin-4-yl]amino}-1H-indazol-6-yl)spiro[cyclopropane-1,3′-indol]-2′(1′H)-one] | 260

From patent US20230365537A1, “POLO LIKE KINASE 4 INHIBITORS” (ORIC Pharmaceuticals, Inc., priority 2021, published 2023)
